Structures are written as SMILES. A value given as a limit tells only on which side of the number the result lay.

Here are results for 9 compounds from patent US10799605B2 (3B PHARMACEUTICALS GMBH, priority 2014, dated 2020).

Assay [1] deals with T1, NTR1 (Homo sapiens (Human), UniProt P30989). Nature of the assay: Functional Ca2+ mobilisation assay (example part II). To be noted: antagonist assay. The class given is cell-based. An excerpt: Ca^2+ ions are usually kept at nanomolar levels in the cytosol of cells, and act in a number of signal transduction pathways as second messengers. […] Changes in calcium ion concentration in standard assay protocols can be readily detected with fluorescent dyes that emit light when changes in intracellular Ca2^+ ion concentration occur. Given the transient nature of these responses, they are often read with instrumentation that has ‘inject and read’ capability.
(§1) HT29 or NTR1-expressing HEK293 cells were trypsinized and seeded into black flat clear-bottom 96-well plates (Corning, Amsterdam, The Netherlands) at 6×10^5 cells per well. After 24 h incubation at 37° C. and 5% CO2, cells were washed twice with wash buffer (130 mM NaCl, 5 mM KCl, 10 mM Hepes, 2 mM CaCl2, 10 mM Glucose, pH 7.4) and loaded with 100 μl of Ca5 dye (Molecular Devices, Biberach, Germany) for 1 h at 37° C. and 5% CO2. For agonist assays, serial dilutions of agonistic substances were added to the cells loaded with dye and the change of the fluorescent signal was recorded continually for approx. 90 s using a FlexStation II (Molecular Devices, Biberach, Germany). Addition of wash buffer served as a control. Thus, EC50 concentrations for each compound were computed and provided a measure for the potency of the substance. For antagonist assays, cells loaded with 100 μl of Ca5-dye were pre-incubated with serial dilutions of antagonistic substances for 30 min, before the EC80-concentration of agonist was added to the cells and the change of the fluorescent signal was recorded continually for approx. 90 s. Thus, IC50 concentrations were computed for each compound and provided a measure for the inhibitory activity of the compounds at the NTR1.
Background: Calcium assays in cells follow changes in intracellular calcium, usually with a dye or a luminescent sensor.

Assay [2] addresses T1, NTR1. As to the kind of experiment: Radioligand binding assay NTR1 (example part II). The conditions noted are these: 0.05 nM 125I-(Tyr3-neurotensin), 60 min at 4° C.; read-out: IC50 [nM] RLB. The method, then:
(§2) In order to determine the binding affinity of compounds comprising a radiolabel for NTR1, a radioligand binding assay was carried out. A radioligand is a radioactive biochemical substance that is used for diagnosis or for research-oriented study of cellular receptor systems of the body. In […] systems it is often used to quantify the binding of a test molecule to the binding site of radioligand. The higher the affinity of the molecule, the more radioligand is displaced from the binding site. The amount of bound radioligand can be measured by scintillation counting and thereby quantified. This assay is commonly used to calculate binding constants of molecules to receptors.
(§3) The NTR1 radioligand binding assay was performed by Cerep (Celle l'Evescault, France; Catalog reference 0109) according to Vita et al., FEBS Lett., 1993, 317, 139-142. NTR1 was prepared from CHO cells recombinantly expressing the human receptor and incubated with 0.05 nM ^125I-(Tyr^3-neurotensin) and serial dilutions of the test compounds. […] The result for each test compound is expressed as IC50 concentration and provides a measure for the affinity of the test compound for NTR1.

The target of assay [3] is T1, NTR1. Nature of the assay: Functional Ca2+ mobilisation assay (example part I). Format: cell-based.
From the text: Ca^2+ ions are usually kept at nanomolar levels in the cytosol of cells, and act in a number of signal transduction pathways as second messengers. […] Changes in calcium ion concentration in standard assay protocols can be readily detected with fluorescent dyes that emit light when changes in intracellular Ca^2+ ion concentration occur. Given the transient nature of these responses, they are often read with instrumentation that has ‘inject and read’ capability.
as §1, with “conjugate” for “compound”, “conjugates” for “compounds”

The target of assay [4] is T1, NTR1. As to the kind of experiment: Radioligand binding assay NTR1 (example part I). The method, then:
as §2, §3

T1 sequence (P30989 whole entry): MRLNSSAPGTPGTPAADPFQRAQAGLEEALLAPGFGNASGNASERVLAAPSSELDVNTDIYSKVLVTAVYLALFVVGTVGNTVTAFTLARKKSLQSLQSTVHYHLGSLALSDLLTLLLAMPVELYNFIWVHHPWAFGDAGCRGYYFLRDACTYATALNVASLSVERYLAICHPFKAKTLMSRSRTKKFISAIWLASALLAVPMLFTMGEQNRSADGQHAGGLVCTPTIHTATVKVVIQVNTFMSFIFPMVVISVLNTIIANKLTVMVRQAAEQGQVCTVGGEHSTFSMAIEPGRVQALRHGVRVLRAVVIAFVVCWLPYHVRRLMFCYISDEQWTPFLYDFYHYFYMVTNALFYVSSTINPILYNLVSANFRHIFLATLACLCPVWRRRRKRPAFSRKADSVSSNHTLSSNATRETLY

`COc1cccc(OC)c1-c1cc(C(=O)NC2(C(=O)O)C3CC4CC(C3)CC2C4)nn1-c1ccc(C(=O)N(C)CCCN(C)CCCN(C)C(=O)CCCCCNC(=O)CN2CCN(CC(=O)O)CCN(CC(=O)O)CCN(CC(=O)O)CC2)cc1C(C)C` (centres unmarked) [(IIIc), 2-{[1-(4-{[3-({3-[(DOTA-Ahx)-methyl-amino]-propyl}-methyl-amino)-propyl]-methyl-carbamoyl}-2-isopropyl-phenyl)-5-(2,6-dimethoxy-phenyl)-1H-pyrazole-3-carbonyl]-amino}-adamantane-2-carboxylic acid]: the figures for the IC50 in assay [1] and in assay [2] were 11.8 nM and 5.7 nM, respectively.

Take `COc1cccc(OC)c1-c1cc(C(=O)NC2(C(=O)O)C3CC4CC(C3)CC2C4)nn1-c1ccc(C(=O)N(C)CCCN(C)CCCN(C)C(=S)Nc2ccc(NC(=S)NCCCCCN(O)C(=O)CCC(=O)NCCCCCN(O)C(=O)CCC(=O)NCCCCCN(O)C(C)=O)cc2)cc1C(C)C` (centres unmarked) [(IIIf), 2-({5-(2,6-Dimethoxy-phenyl)-1-[2-isopropyl-4-(methyl-{3-[methyl-(3-{1-methyl-3-[4-(3-DFO-thioureido)-phenyl]-thioureido}-propyl)-amino]-propyl}-carbamoyl)-phenyl]-1H-pyrazole-3-carbonyl}-amino)-adamantane-2-carboxylic]: the IC50 amounted to 17.5 nM in assay [1] and 3 nM in assay [2].

With `COc1cccc(OC)c1-c1cc(C(=O)NC2(C(=O)O)C3CC4CC(C3)CC2C4)nn1-c1ccc(C(=O)N(C)CCCN(C)CCCN(C)C(=O)CCC(=O)NCCCOCCOCCOCCCNC(=O)CCC(C(=O)O)N2CCN(CC(=O)O)CCN(CC(=O)O)CC2)cc1C(C)C` (centres unmarked) [(IIIe), 2-{[1-(4-{[3-({3-[(NODAGA-Ttds)-methyl-amino]-propyl}-methyl-amino)-propyl]-methyl-carbamoyl}-2-isopropyl-phenyl)-5-(2,6-dimethoxy-phenyl)-1H-pyrazole-3-carbonyl]-amino}-adamantane-2-carboxylic acid], the results for the IC50 in assay [1] and in assay [2] were 21.4 nM and 4.9 nM, respectively.

In the case of `COc1cccc(OC)c1-c1cc(C(=O)NC2(C(=O)O)C3CC4CC(C3)CC2C4)nn1-c1ccc(C(=O)N(CCCNC(=O)CCC(=O)NCCCOCCOCCOCCCNC(=O)CN2CCN(CC(=O)O)CCN(CC(=O)O)CCN(CC(=O)O)CC2)CCCN(C)C)cc1C(C)C` (centres unmarked) [(Vb), 2-{[5-(2,6-Dimethoxy-phenyl)-1-(4-{(3-dimethylamino-propyl)-[3-(DOTA-Ttds-amino)-propyl]-carbamoyl}-2-isopropyl-phenyl)-1H-pyrazole-3-carbonyl]-amino}-adamantane-2-carboxylic], the IC50 in assay [1] worked out at 26 nM; in assay [2], 2.4 nM.

Take `CNCCCN(C)CCCN(C)C(=O)c1ccc(-n2nc(C(=O)NC3(C(=O)O)C4CC5CC(C4)CC3C5)cc2-c2c(OC)cccc2OC)c(C(C)C)c1` (centres unmarked) [(III), 2-({5-(2,6-Dimethoxy-phenyl)-1-[2-isopropyl-4-(methyl-{3-[methyl-(3-methylamino-propyl)-amino]-propyl}-carbamoyl)-phenyl]-1H-pyrazole-3-carbonyl}-amino)-adamantane-2-carboxylic acid]: the IC50 in assay [1] is 7.54 nM; in assay [2], 0.87 nM.

Turning to `COc1cccc(OC)c1-c1cc(C(=O)NC2(C(=O)O)C3CC4CC(C3)CC2C4)nn1-c1ccc(C(=O)N(C)CCCN(C)CCCN(C)C(=O)CCC(C(=O)O)N2CCN(CC(=O)O)CCN(CC(=O)O)CC2)cc1C(C)C` (centres unmarked) [(IIId), 2-{[1-(4-{[3-({3-[(NODAGA)-methyl-amino]-propyl}-methyl-amino)-propyl]-methyl-carbamoyl}-2-isopropyl-phenyl)-5-(2,6-dimethoxy-phenyl)-1H-pyrazole-3-carbonyl]-amino}-adamantane-2-carboxylic acid], the concentration for half-maximal inhibition (IC50) in assay [1] stood at 14.5 nM; in assay [2], 3.7 nM.

Regarding `COc1cccc(OC)c1-c1cc(C(=O)NC2(C(=O)O)C3CC4CC(C3)CC2C4)nn1-c1ccc(C(=O)N(C)CCCN(C)CCCN(C)C(=O)c2ccc(F)cc2)cc1C(C)C` (centres unmarked) [(IIIg), 2-{[5-(2,6-Dimethoxy-phenyl)-1-(4-{[3-({3-[(4-fluoro-benzoyl)-methyl-amino]-propyl}-methyl-amino)-propyl]-methyl-carbamoyl}-2-isopropyl-phenyl)-1H-pyrazole-3-carbonyl]-amino}-adamantane-2-carboxylic acid], the IC50 in assay [1] was 14.5 nM; in assay [2], 2.3 nM.

As to `COc1cccc(OC)c1-c1cc(C(=O)NC2(C(=O)O)C3CC4CC(C3)CC2C4)nn1-c1ccc(C(=O)N(C)CCCN(C)CCCN(C)C(=O)CCCC(=O)NCCCC[C@H](NC(=O)CCC(=O)NCCCOCCOCCOCCCNC(=O)CCC(=O)NCCCOCCOCCOCCCNC(=O)CCC(=O)NCCCOCCOCCOCCCNC(=O)[C@H](CCCCNC(=O)CN2CCN(CC(=O)O)CCN(CC(=O)O)CCN(CC(=O)O)CC2)NC(=O)CCC(=O)NCCCOCCOCCOCCCNC(=O)CCC(=O)NCCCOCCOCCOCCCNC(=O)CCC(=O)NCCCOCCOCCOCCCNC(=O)CCCNC(=O)[C@@H](NC(=O)[C@H](CCCNC(=N)N)NC(=O)[C@H](C)NC(=O)[C@@H](NC(=O)[C@H](CCCCN)NC(=O)[C@H](CCC(N)=O)NC(=O)[C@H](C)NC(=O)[C@H](CC(C)C)NC(=O)[C@@H](NC(=O)[C@H](CCC(N)=O)NC(=O)[C@H](CC(C)C)NC(=O)[C@H](CC(=O)O)NC(=O)CNC(=O)[C@H](CCCNC(=N)N)NC(=O)[C@H](CC(C)C)NC(=O)[C@H](CC(N)=O)NC(=O)[C@@H]2CCCN2C(=O)[C@@H](NC(=O)[C@H](C)NC(=O)[C@H](CC(N)=O)NC(C)=O)C(C)C)C(C)C)C(C)C)[C@@H](C)O)C(N)=O)cc1C(C)C` (some centres unmarked) [(22)], in assay [3], the EC50 was greater than 50000 nM and the midpoint of inhibition, the IC50, lay at 21 nM. This compound displayed an IC50 in assay [4] of 9.1 nM.

In assay [3], `COc1cccc(OC)c1-c1cc(C(=O)NC2(C(=O)O)C3CC4CC(C3)CC2C4)nn1-c1ccc(C(=O)N(C)CCCN(C)CCCN(C)C(=O)CCCC(=O)NCCCOCCOCCOCCCNC(=O)CCC(=O)NCCCC[C@H](NC(=O)CCC(=O)NCCCOCCOCCOCCCNC(=O)CCCC(=O)N(C)CCCN(C)CCCN(C)C(=O)c2ccc(-n3nc(C(=O)NC4(C(=O)O)C5CC6CC(C5)CC4C6)cc3-c3c(OC)cccc3OC)c(C(C)C)c2)C(=O)NCCCOCCOCCOCCCNC(=O)CCC(=O)N[C@@H](CC(N)=O)C(=O)N[C@@H](C)C(=O)N[C@H](C(=O)N2CCC[C@H]2C(=O)N[C@@H](CC(N)=O)C(=O)N[C@@H](CC(C)C)C(=O)N[C@@H](CCCNC(=N)N)C(=O)NCC(=O)N[C@@H](CC(=O)O)C(=O)N[C@@H](CC(C)C)C(=O)N[C@@H](CCC(N)=O)C(=O)N[C@H](C(=O)N[C@@H](CC(C)C)C(=O)N[C@@H](C)C(=O)N[C@@H](CCC(N)=O)C(=O)N[C@@H](CCCCN)C(=O)N[C@H](C(=O)N[C@@H](C)C(=O)N[C@@H](CCCNC(=N)N)C(=O)N[C@H](C(=O)NCCCC(=O)NCCCOCCOCCOCCCNC(=O)CCC(=O)N[C@@H](CCCCNC(=O)CN2CCN(CC(=O)O)CCN(CC(=O)O)CCN(CC(=O)O)CC2)C(N)=O)[C@@H](C)O)C(C)C)C(C)C)C(C)C)cc1C(C)C` (some centres unmarked) [(25)] displayed an EC50 greater than 50000 nM and an IC50 of 12 nM. Moreover, the IC50 in assay [4] was determined as 7.5 nM.

One may read the IC50 as the point on the concentration scale where inhibition reaches its midpoint. The term EC50 denotes the concentration that produces a half-maximal response.
